We go through three compounds from PMC11314561, “Design and Synthesis of Novel Aminoindazole-pyrrolo[2,3-b]pyridine Inhibitors of IKKα That Selectively Perturb Cellular Non-Canonical NF-κB Signalling” (Molecules, 2024).

What all share (assay): kinase panel
Holding throughout (assay type): biochemical

One assay concerns the target CaMKIδ(h) (Homo sapiens, UniProt Q8IU85). A digest of the protocol: (§1)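 Percentage inhibition was recorded for each compound against a broad kinase panel of 231 enzymes. Because of its close structural resemblance to another analogue, one compound was screened against 98 chosen kinases.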
In the next assay the target is MSK1(h) (Homo sapiens, UniProt O75582). The gist of the method:
as §1

In another assay the target is T1, NEK2(h) (Homo sapiens, UniProt P51955).
T1 sequence (P51955 1-445): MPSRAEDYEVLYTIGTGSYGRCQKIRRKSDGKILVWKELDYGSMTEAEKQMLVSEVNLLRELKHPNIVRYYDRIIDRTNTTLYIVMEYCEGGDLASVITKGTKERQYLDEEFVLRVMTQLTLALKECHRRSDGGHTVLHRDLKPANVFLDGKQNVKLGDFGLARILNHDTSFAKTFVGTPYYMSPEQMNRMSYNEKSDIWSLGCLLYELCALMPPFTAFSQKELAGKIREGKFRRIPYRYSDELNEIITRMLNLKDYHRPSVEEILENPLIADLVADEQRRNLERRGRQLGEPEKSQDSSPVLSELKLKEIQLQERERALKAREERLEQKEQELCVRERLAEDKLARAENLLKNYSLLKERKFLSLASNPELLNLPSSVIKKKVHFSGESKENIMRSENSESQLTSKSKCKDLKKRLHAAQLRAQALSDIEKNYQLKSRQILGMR
A digest of the protocol: as §1

For the next assay, the target named is PRK2(h) (Homo sapiens, UniProt Q16513). A digest of the protocol:
as §1

In another assay the target is AMPKα1(h) (Homo sapiens, UniProt Q13131). The gist of the method:
as §1

Another assay has as its target BRK(h) (Homo sapiens, UniProt Q13882). A digest of the protocol:
as §1

A further assay concerns the target ALK(h) (Homo sapiens, UniProt Q9UM73). The gist of the method:
as §1

Another assay addresses CaMKIIδ(h) (Homo sapiens, UniProt Q13557). A digest of the protocol: as §1
The next assay addresses CK1δ(h) (Homo sapiens, UniProt P48730). The gist of the method:
as §1

Another assay concerns the target CDK3/cyclinE(h) (Homo sapiens, UniProt Q00526). A digest of the protocol:
as §1

A further assay has as its target ROCK-II(h) (Homo sapiens, UniProt O75116). The gist of the method: as §1
For another assay, the target named is T2, Haspin(h) (Homo sapiens, UniProt Q8TF76).
T2 sequence (Q8TF76 1-798): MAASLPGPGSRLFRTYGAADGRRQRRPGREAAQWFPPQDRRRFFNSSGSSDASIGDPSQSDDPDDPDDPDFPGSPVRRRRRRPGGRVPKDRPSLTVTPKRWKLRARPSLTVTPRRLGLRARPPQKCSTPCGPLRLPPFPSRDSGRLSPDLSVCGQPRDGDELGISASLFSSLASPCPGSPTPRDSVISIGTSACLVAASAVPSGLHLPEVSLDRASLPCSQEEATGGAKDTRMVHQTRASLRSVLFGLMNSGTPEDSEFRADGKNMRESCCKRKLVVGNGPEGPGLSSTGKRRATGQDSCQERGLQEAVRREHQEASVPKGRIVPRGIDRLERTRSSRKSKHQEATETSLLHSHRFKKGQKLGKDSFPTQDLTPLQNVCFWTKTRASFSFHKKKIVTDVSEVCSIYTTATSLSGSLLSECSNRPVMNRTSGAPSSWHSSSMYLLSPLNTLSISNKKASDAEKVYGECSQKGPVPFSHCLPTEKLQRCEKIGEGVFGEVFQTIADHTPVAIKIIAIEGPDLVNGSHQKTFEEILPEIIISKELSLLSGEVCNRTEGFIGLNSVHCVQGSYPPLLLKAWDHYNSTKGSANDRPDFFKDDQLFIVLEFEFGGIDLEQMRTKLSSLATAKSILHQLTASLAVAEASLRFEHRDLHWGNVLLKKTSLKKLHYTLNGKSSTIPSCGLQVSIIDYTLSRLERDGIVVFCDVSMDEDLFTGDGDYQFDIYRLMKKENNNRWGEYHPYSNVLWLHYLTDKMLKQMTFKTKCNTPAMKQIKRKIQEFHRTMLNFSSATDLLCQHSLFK
A digest of the protocol: as §1

For another assay, the target named is CHK2(h) (Homo sapiens, UniProt O96017). A digest of the protocol:
as §1

Another assay concerns the target FGFR3(h) (Homo sapiens, UniProt P22607). The gist of the method: as §1
The target in the next assay is cSRC(h) (Homo sapiens, UniProt P12931). The gist of the method: as §1
cSRC(h), sequence (P12931 whole entry): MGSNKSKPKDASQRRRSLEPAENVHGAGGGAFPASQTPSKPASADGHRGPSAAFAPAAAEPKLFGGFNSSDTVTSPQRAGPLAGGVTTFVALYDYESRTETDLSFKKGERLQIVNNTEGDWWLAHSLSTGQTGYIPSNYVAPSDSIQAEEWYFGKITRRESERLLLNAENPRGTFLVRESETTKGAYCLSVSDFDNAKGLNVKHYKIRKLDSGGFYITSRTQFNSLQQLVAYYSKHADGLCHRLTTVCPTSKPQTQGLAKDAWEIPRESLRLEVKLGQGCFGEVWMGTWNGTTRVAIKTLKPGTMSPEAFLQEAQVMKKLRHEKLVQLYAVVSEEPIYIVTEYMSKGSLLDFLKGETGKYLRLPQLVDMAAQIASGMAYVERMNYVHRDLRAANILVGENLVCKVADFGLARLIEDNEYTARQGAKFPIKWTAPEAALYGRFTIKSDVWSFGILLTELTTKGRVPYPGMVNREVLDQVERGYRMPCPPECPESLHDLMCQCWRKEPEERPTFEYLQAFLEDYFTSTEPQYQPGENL
In the next assay the target is CaMKI(h) (Homo sapiens, UniProt Q14012). A digest of the protocol:
as §1

In a further assay the target is TrkA(h) (Homo sapiens, UniProt P04629). A digest of the protocol: as §1
TrkA(h), sequence (P04629 33-796): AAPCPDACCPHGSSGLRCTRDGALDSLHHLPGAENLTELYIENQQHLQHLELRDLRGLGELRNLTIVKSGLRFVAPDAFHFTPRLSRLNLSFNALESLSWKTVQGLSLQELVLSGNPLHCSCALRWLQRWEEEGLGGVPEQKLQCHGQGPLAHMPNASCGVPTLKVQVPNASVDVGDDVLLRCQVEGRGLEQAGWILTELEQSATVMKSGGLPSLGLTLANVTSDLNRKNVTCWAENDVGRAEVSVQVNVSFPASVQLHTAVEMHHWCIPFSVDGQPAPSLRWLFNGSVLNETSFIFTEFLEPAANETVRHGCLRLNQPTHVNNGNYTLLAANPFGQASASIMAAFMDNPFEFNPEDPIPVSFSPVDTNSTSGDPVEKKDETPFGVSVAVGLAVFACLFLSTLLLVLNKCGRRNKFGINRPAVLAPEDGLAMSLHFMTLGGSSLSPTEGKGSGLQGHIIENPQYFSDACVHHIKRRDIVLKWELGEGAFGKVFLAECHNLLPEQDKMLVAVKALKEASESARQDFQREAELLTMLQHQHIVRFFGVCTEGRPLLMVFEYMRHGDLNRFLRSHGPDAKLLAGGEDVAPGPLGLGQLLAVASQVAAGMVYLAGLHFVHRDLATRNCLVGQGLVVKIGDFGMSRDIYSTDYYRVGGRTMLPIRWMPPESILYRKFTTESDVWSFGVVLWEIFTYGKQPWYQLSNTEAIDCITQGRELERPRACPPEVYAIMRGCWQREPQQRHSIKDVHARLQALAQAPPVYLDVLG
The target of another assay is MARK1(h) (Homo sapiens, UniProt Q9P0L2). A digest of the protocol: as §1

AMPKα1(h), sequence (Q13131 whole entry): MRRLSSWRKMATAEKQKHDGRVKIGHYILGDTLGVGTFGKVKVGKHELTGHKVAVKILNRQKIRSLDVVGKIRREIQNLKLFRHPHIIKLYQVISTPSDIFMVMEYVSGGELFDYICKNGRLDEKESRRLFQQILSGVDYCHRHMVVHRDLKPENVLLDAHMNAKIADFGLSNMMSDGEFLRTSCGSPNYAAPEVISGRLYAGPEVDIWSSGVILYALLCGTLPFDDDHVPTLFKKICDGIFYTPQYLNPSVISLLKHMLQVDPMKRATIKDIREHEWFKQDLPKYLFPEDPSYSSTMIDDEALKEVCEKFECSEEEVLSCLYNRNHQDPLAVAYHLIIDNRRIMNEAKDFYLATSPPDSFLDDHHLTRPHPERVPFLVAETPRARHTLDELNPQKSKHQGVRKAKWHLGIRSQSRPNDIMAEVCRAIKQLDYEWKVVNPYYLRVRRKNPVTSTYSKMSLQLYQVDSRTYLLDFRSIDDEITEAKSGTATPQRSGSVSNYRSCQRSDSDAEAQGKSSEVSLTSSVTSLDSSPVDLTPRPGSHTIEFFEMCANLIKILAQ
AMPKα1(h), sequence (Q9Y478 whole entry partner): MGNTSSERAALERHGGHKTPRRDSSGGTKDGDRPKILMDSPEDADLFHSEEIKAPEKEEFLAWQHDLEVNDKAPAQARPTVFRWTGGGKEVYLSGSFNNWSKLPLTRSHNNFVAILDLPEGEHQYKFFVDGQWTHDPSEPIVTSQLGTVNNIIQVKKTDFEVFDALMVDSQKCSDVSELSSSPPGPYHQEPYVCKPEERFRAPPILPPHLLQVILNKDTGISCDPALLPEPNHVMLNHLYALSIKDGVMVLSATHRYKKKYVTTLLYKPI
AMPKα1(h), sequence (P54619 whole entry partner): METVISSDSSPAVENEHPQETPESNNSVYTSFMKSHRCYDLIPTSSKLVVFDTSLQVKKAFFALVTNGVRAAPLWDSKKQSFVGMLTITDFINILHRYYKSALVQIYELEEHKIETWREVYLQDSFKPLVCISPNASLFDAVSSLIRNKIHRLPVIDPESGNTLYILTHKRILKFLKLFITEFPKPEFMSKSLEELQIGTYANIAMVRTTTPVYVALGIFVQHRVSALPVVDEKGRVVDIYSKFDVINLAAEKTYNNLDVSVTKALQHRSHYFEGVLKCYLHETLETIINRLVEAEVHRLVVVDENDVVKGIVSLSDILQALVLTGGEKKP
MSK1(h), sequence (O75582 whole entry): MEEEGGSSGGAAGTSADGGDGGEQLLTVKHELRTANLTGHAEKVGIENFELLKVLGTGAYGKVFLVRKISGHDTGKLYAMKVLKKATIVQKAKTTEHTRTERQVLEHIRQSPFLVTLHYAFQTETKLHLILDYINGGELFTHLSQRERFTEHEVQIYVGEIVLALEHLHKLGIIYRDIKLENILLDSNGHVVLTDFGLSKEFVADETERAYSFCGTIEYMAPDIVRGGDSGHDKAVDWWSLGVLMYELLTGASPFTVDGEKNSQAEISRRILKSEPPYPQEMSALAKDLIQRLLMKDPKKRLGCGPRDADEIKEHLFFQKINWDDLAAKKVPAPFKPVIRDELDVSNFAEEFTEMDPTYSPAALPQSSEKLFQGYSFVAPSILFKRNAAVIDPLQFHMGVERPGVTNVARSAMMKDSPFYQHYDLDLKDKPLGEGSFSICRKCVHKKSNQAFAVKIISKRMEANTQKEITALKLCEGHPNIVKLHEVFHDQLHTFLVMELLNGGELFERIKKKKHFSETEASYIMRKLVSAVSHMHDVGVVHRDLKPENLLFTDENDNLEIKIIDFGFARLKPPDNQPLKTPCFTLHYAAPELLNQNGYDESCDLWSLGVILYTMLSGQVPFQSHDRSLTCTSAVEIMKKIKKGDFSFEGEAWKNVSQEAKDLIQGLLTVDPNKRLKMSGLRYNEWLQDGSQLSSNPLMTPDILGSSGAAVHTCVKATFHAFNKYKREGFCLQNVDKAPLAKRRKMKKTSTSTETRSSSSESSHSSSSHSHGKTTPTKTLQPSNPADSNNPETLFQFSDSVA
CaMKIIδ(h), sequence (Q13557 whole entry): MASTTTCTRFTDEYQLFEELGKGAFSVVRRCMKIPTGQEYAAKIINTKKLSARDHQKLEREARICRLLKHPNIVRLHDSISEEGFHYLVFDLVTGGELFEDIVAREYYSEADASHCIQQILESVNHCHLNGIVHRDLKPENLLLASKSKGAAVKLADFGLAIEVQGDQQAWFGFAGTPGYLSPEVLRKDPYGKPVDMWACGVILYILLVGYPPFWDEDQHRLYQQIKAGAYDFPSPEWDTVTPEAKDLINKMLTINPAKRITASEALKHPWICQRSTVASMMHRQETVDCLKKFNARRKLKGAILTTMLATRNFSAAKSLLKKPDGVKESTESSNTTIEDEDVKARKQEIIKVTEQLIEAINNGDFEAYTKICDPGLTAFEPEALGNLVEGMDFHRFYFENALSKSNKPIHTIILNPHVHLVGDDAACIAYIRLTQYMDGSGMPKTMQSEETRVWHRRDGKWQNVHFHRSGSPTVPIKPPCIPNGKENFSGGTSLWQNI
CHK2(h), sequence (O96017 whole entry): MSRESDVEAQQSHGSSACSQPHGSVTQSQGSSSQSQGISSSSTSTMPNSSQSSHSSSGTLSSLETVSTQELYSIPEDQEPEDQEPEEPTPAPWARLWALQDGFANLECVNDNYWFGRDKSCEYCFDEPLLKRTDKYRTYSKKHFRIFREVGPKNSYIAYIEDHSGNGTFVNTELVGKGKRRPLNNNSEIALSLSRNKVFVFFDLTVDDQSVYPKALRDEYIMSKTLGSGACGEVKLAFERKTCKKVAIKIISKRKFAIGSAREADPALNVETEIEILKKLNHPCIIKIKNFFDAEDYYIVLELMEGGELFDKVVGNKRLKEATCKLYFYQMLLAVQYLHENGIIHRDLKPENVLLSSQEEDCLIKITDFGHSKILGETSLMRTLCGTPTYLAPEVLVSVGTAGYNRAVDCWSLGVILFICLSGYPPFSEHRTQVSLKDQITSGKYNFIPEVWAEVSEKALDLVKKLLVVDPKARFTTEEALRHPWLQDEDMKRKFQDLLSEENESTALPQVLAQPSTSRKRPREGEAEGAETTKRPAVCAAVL
CK1δ(h), sequence (P48730 whole entry): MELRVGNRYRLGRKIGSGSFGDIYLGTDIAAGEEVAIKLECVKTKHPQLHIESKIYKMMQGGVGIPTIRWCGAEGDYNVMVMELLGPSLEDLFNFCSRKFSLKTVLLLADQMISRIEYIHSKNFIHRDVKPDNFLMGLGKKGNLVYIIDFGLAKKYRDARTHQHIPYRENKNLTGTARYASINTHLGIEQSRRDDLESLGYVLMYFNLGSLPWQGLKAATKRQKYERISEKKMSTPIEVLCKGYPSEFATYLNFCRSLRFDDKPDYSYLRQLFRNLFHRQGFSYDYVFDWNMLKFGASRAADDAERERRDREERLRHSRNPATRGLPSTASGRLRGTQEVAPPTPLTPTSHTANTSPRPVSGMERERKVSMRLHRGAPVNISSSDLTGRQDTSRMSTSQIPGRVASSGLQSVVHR

For the compound `Nc1n[nH]c2ccc(-c3ccnc4[nH]c(-c5ccccc5)cc34)cc12` [Compound 4], the inhibition (commonly the change of the read-out against control, counted positive when it falls) at 1 µM against CaMKIδ(h) is -8%; on MSK1(h), -2%; at NEK2(h) it was 5%; against PRK2(h) it was 85%; against AMPKα1(h), 23%; at BRK(h), 46%. Moreover, the inhibition at 1 µM against ALK(h) was found to be 56%; at CaMKIIδ(h), 80%; against CK1δ(h) it was 58%; against CDK3/cyclinE(h), 94%; against ROCK-II(h), 89%; on Haspin(h), 101%. Moreover, the inhibition at 1 µM was 28% against CHK2(h); 77% at FGFR3(h); 42% against cSRC(h); 9% against CaMKI(h); 71% on TrkA(h); 84% against MARK1(h).
In the case of `Nc1n[nH]c2ccc(-c3ccnc4[nH]c(-c5cccc(OCc6ccccc6)c5)cc34)cc12` [Compound 5r [SU1261]], the inhibition at 1 µM was 9% at CaMKIδ(h); -24% on MSK1(h); 4% on NEK2(h); 56% against PRK2(h); -7% on AMPKα1(h); 17% against BRK(h). The inhibition at 1 µM against ALK(h) was found to be 27%; against CaMKIIδ(h), 61%; against CK1δ(h), 14%; against CDK3/cyclinE(h), 45%; on ROCK-II(h), 58%; against Haspin(h), 94%. Moreover, the inhibition at 1 µM on CHK2(h) is 13%; against FGFR3(h), 41%; on cSRC(h) it was 26%; against CaMKI(h) it was -6%; at TrkA(h), 29%; at MARK1(h), 28%.
In the case of `Nc1n[nH]c2ccc(-c3ccnc4[nH]c(-c5ccnc(OCc6ccccc6)c5)cc34)cc12` [Compound 6g [SU1349]], the inhibition at 1 µM against CaMKIδ(h) is 24%; against MSK1(h) it was -4%; against NEK2(h), 8%; against PRK2(h), 19%; against AMPKα1(h) it was -5%; against BRK(h), 8%. The inhibition at 1 µM against ALK(h) came to 5%; at CaMKIIδ(h), 37%; at CK1δ(h) it was 5%; against CDK3/cyclinE(h) it was 37%; against ROCK-II(h) it was 25%; on Haspin(h), 92%. Besides, the inhibition at 1 µM at CHK2(h) is -5%; against FGFR3(h), 0%; on cSRC(h), -28%; at CaMKI(h), 1%; against TrkA(h), -11%; against MARK1(h), 17%.
